Measured values from patent US7737127B2, “2-propynyl adenosine analogs having A2A agonist activity and compositions thereof” (University of Virginia Patent Foundation, priority 2001, dated 2010).

Experiments:
human neutrophils = experiment: Human neutrophil oxidative activity, luminol-enhanced chemiluminescence; assay type: cell-based; conditions: for EC50: Homo sapiens, Neutrophil, read-out: PMN oxid (-log EC50) (converted); for PMN oxid + roli (-log EC50): human neutrophil experiment w/Rolipram
Experimental: Chemiluminescence Methods: Lumninol enhanced chemiluminescence, a measure of neutrophil oxidative activity, is dependent upon both superoxide production and mobilization of the granule enzyme myeloperoxidase. The light is emitted from unstable high-energy oxygen species such as hypochlorous acid and singlet oxygen generated by activated neutrophils.
The plate was incubated 5 min (37 C) and then fMLP (50 l in HA; final concentration […]) was added to all wells.
Data are presented as peak chemiluminescence as percent of activity in the absence of an adenosine agonist. The EC50 was determined using PRISM software. All compounds were tested with PMNs from three separate donors.
Lummol-enhanced chemiluminescence, a measure of neutrophil oxidative activity, is dependent upon both superoxide production and mobilization of the lysosomal granule enzyme myeloperoxidase. The light is emitted from unstable high-energy oxygen species generated by activated neutrophils. Purified neutrophils (5-10×10^5/ml) were incubated in Hanks balanced salt solution containing 0.1% human serum albumin (1 ml) with the tested A2A agonist with or without rolipram and with or without tumor necrosis factor-alpha (1 U/ml) for 30 minutes at 37° C. in a shaking water bath. […] Chemiluminescence is reported as relative peak light emitted (=height of the curve) compared to samples with tumor necrosis factor-alpha and without agonist or rolipram.

human A1 AR = target: T1, human A1 AR (Homo sapiens, UniProt P30542); experiment: Radioligand competition binding (125I-ABA) to human A1 AR in CHO K1 cell membranes; conditions: for Ki: A1 ± SEM, Ki from competition binding, 125I-ABA, CHO K1 cell membranes; for A1/A2A: selectivity ratio A1 over A2A
T1 sequence (P30542 1-326): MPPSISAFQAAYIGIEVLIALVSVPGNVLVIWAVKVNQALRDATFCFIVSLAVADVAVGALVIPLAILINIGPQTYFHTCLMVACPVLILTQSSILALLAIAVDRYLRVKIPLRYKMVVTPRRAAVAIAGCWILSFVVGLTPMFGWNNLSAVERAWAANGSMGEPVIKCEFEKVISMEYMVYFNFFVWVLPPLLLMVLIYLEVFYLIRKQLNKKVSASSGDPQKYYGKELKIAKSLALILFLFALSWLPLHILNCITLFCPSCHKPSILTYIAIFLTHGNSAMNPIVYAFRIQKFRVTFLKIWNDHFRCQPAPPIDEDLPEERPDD

A3 AR = target: T2, A3 AR (Homo sapiens, UniProt P0DMS8); experiment: Radioligand competition binding (125I-ABA) to human A3 AR in HEK 293 cell membranes; conditions: for Ki: A3 ± SEM, Ki from competition binding, 125I-ABA, HEK 293 cell membranes; for A3/A2A: selectivity ratio A3 over A2A
T2 sequence (P0DMS8 1-318): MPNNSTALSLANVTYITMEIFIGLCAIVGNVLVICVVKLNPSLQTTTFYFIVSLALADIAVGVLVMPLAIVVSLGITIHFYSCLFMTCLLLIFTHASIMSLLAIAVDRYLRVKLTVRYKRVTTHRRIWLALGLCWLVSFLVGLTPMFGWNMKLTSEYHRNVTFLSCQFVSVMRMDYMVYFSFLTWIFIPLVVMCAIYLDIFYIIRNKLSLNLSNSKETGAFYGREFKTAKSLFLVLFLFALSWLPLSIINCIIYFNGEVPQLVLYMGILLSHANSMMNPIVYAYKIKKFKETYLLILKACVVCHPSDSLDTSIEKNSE

[1] = target: recombinant human A2A receptors (Homo sapiens, UniProt P29274); experiment: Radioligand competition binding to recombinant human A2A receptors in Sf9 cell membranes; conditions: A2A ± SEM, Ki from competition binding, Sf9 cell membranes
[2] = human neutrophil experiment w/o Rolipram

Chain of recombinant human A2A receptors (P29274 whole entry): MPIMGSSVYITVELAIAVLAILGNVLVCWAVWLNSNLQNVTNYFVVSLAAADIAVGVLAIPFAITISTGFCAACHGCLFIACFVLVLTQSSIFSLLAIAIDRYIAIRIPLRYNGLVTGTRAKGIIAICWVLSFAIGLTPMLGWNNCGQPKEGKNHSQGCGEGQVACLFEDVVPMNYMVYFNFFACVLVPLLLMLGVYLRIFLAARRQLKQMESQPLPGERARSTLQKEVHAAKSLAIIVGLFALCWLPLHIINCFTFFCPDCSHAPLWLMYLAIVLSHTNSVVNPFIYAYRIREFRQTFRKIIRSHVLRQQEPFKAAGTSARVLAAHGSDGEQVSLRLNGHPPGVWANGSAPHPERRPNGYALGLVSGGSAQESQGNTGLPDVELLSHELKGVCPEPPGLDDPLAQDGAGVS

| SMILES | EC50 (human neutrophils; [2]) | PMN oxid + roli (-log EC50) (human neutrophils) | Ki (human A1 AR) | A1/A2A (human A1 AR) | Ki (A3 AR) | A3/A2A (A3 AR) | Ki [1] | PMN oxid (-log EC50) (human neutrophils; [2]) |
| --- | --- | --- | --- | --- | --- | --- | --- | --- |
| CCNC(=O)[C@H]1O[C@@H](n2cnc3c(N)nc(C#CCN4CCN(C(=O)OCC)CC4)nc32)C(O)C1O (stereo in doubt) [JR-3213, 4-{3-[6-Amino-9-(5-ethylcarbamoyl-3,4-dihydroxytetrahydrofuran-2-yl)-9H-purin-2-yl]-prop-2-ynyl}-piperazine-1-carboxylic acid ethyl ester] | 3.47 nM | 9.11 | 15.8 ± 0.48 nM | 8.3 | 42.3 ± 18.3 nM | 22.3 | 1.9 ± 0.4 nM | – |
| CCNC(=O)[C@H]1O[C@@H](n2cnc3c(N)nc(C#CCN4CCN(C(=O)OC(C)(C)C)CC4)nc32)C(O)C1O (stereo in doubt) [JR-3281, 4-{3-[6-Amino-9-(5-ethylcarbamoyl-3,4-dihydroxytetrahydrofuran-2-yl)-9H-purin-2-yl]-prop-2-ynyl}-piperazine-1-carboxylic acid tert-butyl ester] | 6.46 nM | – | 9.15 ± 1.35 nM | 3.9 | 38 nM | 16.1 | 2.36 ± 0.5 nM | – |
| CCNC(=O)[C@H]1O[C@@H](n2cnc3c(N)nc(C#CCC4CCC(C(=O)NC)CC4)nc32)C(O)C1O (stereo in doubt) [JR-3065, 5-{6-Amino-2-[3-(4-methylcarbamoyl-cyclohexyl)-prop-1-ynyl]-purin-9-yl}-3,4-dihydroxytetrahydrofuran-2-carboxylic acid ethylamide] | 102 nM | 8.29 | 55 ± 13 nM | 15.3 | 28 ± 13 nM | 7.8 | 3.6 ± 0.5 nM | – |
| CCNC(=O)[C@H]1O[C@@H](n2cnc3c(N)nc(C#CCC4CCC(C(=O)OCCNC(=O)OC(C)(C)C)CC4)nc32)C(O)C1O (stereo in doubt) [JR-3021, 4-{3-[6-Amino-9-(5-ethylcarbamoyl-3,4-dihydroxy-tetrahydrofuran-2-yl)-9H-purin-2-yl]-prop-2-ynyl}-cyclohexanecarboxylic acid 2-tert-butoxycarbonylamino-ethyl ester] | 26.3 nM | 8.58 | 107 ± 10 nM | 66.9 | 41 ± 1 nM | 25.6 | 1.6 ± 0.5 nM | – |

Now from value to compound:

| EC50 (human neutrophils; [2]) | PMN oxid + roli (-log EC50) (human neutrophils) | Ki (human A1 AR) | A1/A2A (human A1 AR) | Ki (A3 AR) | A3/A2A (A3 AR) | Ki [1] | PMN oxid (-log EC50) (human neutrophils; [2]) | SMILES |
| --- | --- | --- | --- | --- | --- | --- | --- | --- |
| 2.24 nM | – | 134 nM | 106.0 | 68.6 nM | 54.4 | 1.26 ± 0.21 nM | – | CCNC(=O)[C@H]1O[C@@H](n2cnc3c(N)nc(C#CCC4CCN(C(=O)OCC)CC4)nc32)C(O)C1O (stereo in doubt) [JR-3269, 4-{3-[6-Amino-9-(5-ethylcarbamoyl-3,4-dihydroxytetrahydrofuran-2-yl)-9H-purin-2-yl]-prop-2-ynyl}-piperidine-1-carboxylic acid ethyl ester] |
| 3.55 nM | – | 167 nM | 116.4 | 86 nM | 60.1 | 1.43 ± 0.23 nM | – | CCNC(=O)[C@H]1O[C@@H](n2cnc3c(N)nc(C#CCC4CCN(C(=O)OC(C)C)CC4)nc32)C(O)C1O (stereo in doubt) [JR-4009, 4-{3-[6-Amino-9-(5-ethylcarbamoyl-3,4-dihydroxytetrahydrofuran-2-yl)-9H-purin-2-yl]-prop-2-ynyl}-piperidine-1-carboxylic acid isopropyl ester] |
| – | 8.91 | 12 ± 5 nM | 5.3 | 3.34 ± 0.48 nM | 1.5 | 2.25 ± 0.35 nM | 7.81 | CCNC(=O)[C@H]1O[C@@H](n2cnc3c(N)nc(C#CC4(O)CCCCNC4=O)nc32)C(O)C1O (single isomer, unassigned) [JR-3243B, 5-[6-Amino-2-(3-hydroxy-2-oxo-azepan-3-ylethynyl)purin-9-yl]-3,4-dihydroxytetrahydrofuran-2-carboxylic acid ethylamide] |
